Here are results for 5 compounds from paper PMC6321475, “Synthesis and Evaluation of the 4-Substituted 2-Hydroxy-5-Iodochalcones and Their 7-Substituted 6-Iodoflavonol Derivatives for Inhibitory Effect on Cholinesterases and β-Secretase” (International Journal of Molecular Sciences, 2018).

What all share (assay type): biochemical
For assay [1], the target named is acetylcholinesterase (AChE) (Homo sapiens, UniProt P22303). In words: biochemical. As to conditions: for IC50: mean ± SD, three independent experiments.
For assay [2], the target named is butyrylcholinesterase (BChE) (Homo sapiens, UniProt P06276). In words: biochemical. The note with it: for IC50: mean ± SD, three independent experiments.
Assay [3] concerns the target T1, BACE-1 (Homo sapiens, UniProt P56817).
T1 construct: purchased Pan Vera; host or cells: baculovirus-expressed
In words: In vitro BACE-1 inhibitory FRET assay. The note with it: 60 min at 25 °C, pH 4.5.

A further assay concerns the target BChE (Homo sapiens, UniProt P06276). As to the kind of experiment: Kinetic study against BChE (Lineweaver-Burk and Dixon plots). As to conditions: for Ki: Dixon plot, substrate butyrylthiocholine iodide; for mode of inhibition of BChE: kinetic analysis. How it is done: (§1) The experiment was performed using different inhibitor (2h, 3b or 3p) concentrations (0, 2.5, 3.5 and 5 µM) and substrate (acetylthiocholine iodide (ACh) or butyrylthiocholine iodide (BCh) concentrations (0.1, 0.5, 2.5 and 5 µM). The reaction was carried out in triplicate and the absorbences were measured at 412 nm after every 1 s. A linear graph of the absorbences against time were plotted to obtain the velocity. Finally, the lineweaver burk plot (reciprocal of the velocity versus reciprocal of the subtrate concentrations) was plotted. as well as the Dixon plot (reciprocal of the velocity versus inhibitor concentration). The inhibition constant Ki, was determined by calculating the straight line equations and identifying the point at which the lines would intersect.

Assay [4] addresses T1, BACE-1. In words: Kinetic study against BACE-1 (Lineweaver-Burk and Dixon plots). The note with it: Dixon plot intercept. The protocol:
The kinetics assays were conducted according to the manufacturer’s instructions similarly to the inhibitory assay except that change in fluorescence over time was monitored at 590 nm without the addition of the stop solution. Each substrate (0.15, 0.30, 0.45 µM) and compound (0, 4, 8 and 16 µM) concentration pair were prepared in triplicate and analyzed. The Lineweaver Burk and Dixon plots were plotted as described in Section 3.7.1.

In another assay the target is AChE (Homo sapiens, UniProt P22303). As to the kind of experiment: Kinetic study against AChE (Lineweaver-Burk and Dixon plots). How it is done:
as §1

Chain of butyrylcholinesterase (BChE) (P06276 29-602): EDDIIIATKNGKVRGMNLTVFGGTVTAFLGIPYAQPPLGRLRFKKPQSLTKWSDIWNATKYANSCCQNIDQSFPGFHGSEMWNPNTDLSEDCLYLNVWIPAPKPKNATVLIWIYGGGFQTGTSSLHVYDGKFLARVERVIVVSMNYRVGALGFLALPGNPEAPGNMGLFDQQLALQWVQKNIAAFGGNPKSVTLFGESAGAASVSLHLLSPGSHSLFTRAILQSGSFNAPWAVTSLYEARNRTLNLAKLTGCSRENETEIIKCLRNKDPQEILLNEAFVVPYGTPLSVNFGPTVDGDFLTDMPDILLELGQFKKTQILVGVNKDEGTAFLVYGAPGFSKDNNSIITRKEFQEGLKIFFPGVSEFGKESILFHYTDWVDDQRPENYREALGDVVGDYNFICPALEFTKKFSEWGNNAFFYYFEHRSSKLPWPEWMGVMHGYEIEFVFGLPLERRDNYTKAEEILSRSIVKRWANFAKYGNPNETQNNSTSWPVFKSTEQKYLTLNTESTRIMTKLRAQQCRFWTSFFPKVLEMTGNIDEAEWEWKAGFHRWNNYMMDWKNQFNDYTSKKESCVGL
Chain of BChE (P06276 29-602): as above
Chain of acetylcholinesterase (AChE) (P22303 32-614): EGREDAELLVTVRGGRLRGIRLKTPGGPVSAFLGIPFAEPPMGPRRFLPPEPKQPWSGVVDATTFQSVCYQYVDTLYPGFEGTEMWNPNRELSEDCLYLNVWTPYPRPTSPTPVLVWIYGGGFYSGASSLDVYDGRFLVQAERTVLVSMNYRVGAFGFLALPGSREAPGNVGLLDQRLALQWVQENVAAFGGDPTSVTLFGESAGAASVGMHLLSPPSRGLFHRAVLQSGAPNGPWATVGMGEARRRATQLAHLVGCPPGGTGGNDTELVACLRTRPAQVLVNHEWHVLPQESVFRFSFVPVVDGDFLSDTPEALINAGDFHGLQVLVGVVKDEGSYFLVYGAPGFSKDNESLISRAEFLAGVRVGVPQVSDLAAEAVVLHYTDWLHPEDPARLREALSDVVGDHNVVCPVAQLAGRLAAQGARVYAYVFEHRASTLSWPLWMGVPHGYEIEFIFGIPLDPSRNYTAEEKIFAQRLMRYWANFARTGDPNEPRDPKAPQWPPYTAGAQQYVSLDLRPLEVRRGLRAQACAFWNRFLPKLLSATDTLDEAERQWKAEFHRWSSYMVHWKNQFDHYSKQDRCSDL
T1 sequence (P56817 46-501): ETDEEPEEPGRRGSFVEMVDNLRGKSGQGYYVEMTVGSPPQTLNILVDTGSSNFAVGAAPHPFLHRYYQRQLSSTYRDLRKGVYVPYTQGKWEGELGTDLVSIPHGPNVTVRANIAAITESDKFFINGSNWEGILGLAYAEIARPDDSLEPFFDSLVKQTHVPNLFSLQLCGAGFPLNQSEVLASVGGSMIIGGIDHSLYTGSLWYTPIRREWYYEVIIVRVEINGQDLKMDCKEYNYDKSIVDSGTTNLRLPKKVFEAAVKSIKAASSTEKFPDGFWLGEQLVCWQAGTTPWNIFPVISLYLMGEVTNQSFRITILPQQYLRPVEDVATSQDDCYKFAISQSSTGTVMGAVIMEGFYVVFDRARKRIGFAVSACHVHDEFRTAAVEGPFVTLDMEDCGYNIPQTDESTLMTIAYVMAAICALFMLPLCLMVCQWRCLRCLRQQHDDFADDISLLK
Chain of AChE (P22303 32-614): as the sequence (P22303 32-614) above

As to `COc1ccc(/C=C/C(=O)c2cc(I)c(Cl)cc2O)cc1` [Compound 2h, (E)-1-(4-Chloro-2-hydroxy-5-iodophenyl)-3-(4-methoxyphenyl)propenone], in assay [1], the “SI BChE/AChE” value is reported as 0.36 and the IC50 is 11.72 ± 0.07 µM. Besides, in assay [2], the “SI AChE/BChE” value is on record as 2.81 and the IC50 was 4.17 ± 0.15 µM. Further, the midpoint of inhibition at BACE-1 [3], the IC50, lay at 13.82 ± 0.03 µM. Moreover, at BChE, the inhibitory constant (Ki) was 1360 ± 170 nM and the “mode of inhibition of BChE” value is reported as “non-competitive inhibitor”.

For `O=C(/C=C/c1ccc(F)cc1)c1cc(I)c(Br)cc1O` [Compound 2j, (E)-1-(4-Bromo-2-hydroxy-5-iodophenyl)-3-(4-fluorophenyl)propenone], in assay [1], the “SI BChE/AChE” value worked out at 0.52 and the IC50 is 10.98 ± 0.03 µM. In addition, in assay [2], the “SI AChE/BChE” value was found to be 1.92 and the IC50 is 5.73 ± 0.05 µM. On BACE-1 [3], this compound registered an IC50 of 4.7 µM. For the same compound, the affinity at BACE-1 [4], expressed as Ki, was 3040 ± 2310 nM.

Regarding `O=c1c(O)c(-c2ccc(F)cc2)oc2cc(F)c(I)cc12` [Compound 3b, 7-Flu.oro-2-(4-fluorophenyl)-3-hydroxy-6-iodo-4H-chromen-4-one], in assay [1], the “SI BChE/AChE” value is listed as 9.22 and 3.23 ± 0.02 µM corresponded to half-maximal inhibition (IC50). For the same compound, in assay [2], the “SI AChE/BChE” value was determined as 0.11 and the IC50 was 29.78 ± 0.04 µM. The midpoint of inhibition at BACE-1 [3], the IC50, lay at 32.18 ± 0.15 µM. This compound also returned an inhibitory constant (Ki) on AChE (Dixon plot, substrate acetylthiocholine iodide) of 4.34 ± 1.1 µM. The “mode of inhibition of AChE” value at AChE (kinetic analysis) is “mixed type of inhibition”.

Compound `COc1ccc(-c2oc3cc(Br)c(I)cc3c(=O)c2O)cc1` [Compound 3l, 7-Bro.mo-3-hydroxy-6-iodo-2-(4-methoxyphenyl)-4H-chromen-4-one] came in with an IC50 at BACE-1 [3] of 15.74 ± 0.12 µM. Moreover, affinity on BACE-1 [4] was put at a Ki of 1210 ± 660 nM.

`COc1ccc(-c2oc3cc(OC)c(I)cc3c(=O)c2O)cc1` [Compound 3p, 3-Hyd.roxy-6-iodo-7-methoxy-2-(4-methoxyphenyl)-4H-chromen-4-one]: in assay [1], the “SI BChE/AChE” value is listed as 0.45 and the midpoint of inhibition, the IC50, lay at 7.19 ± 0.02 µM. In addition, in assay [2], the “SI AChE/BChE” value was found to be 2.18 and the IC50 came out at 3.29 ± 0.03 µM. The compound also came in with an IC50 against BACE-1 [3] of 22.44 ± 0.07 µM. On BChE, the Ki is 460 ± 160 nM and the “mode of inhibition of BChE” value is given as “mixed kinetic type of inhibition”.

For orientation: IC50 means the point on the concentration scale where inhibition reaches its midpoint. A low value points to greater potency in that assay. One may read the Ki as the equilibrium dissociation constant of an inhibitor or competing ligand from its target. Low readings indicate tighter binding, high ones weaker binding.
